Laboratory results taken from PubChem BioAssay (NCI).
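Where inhibition never reached the appropriate level, the endpoint shown equals the highest concentration tested. Otherwise, values were interpolated linearly from a five-concentration, 48-hour dose response in 96-well plates. TGI is the concentration that stops growth completely.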

How the values were obtained:
Experiment in all cases: NCI-60 cell line screen, 48 h
A549 NSCLC = test system: A549 NSCLC
T-47D breast = test system: T-47D breast
HT29 colon = test system: HT29 colon
IGROV1 ovarian = test system: IGROV1 ovarian
SW-620 colon = test system: SW-620 colon
NCI/ADR-RES ovarian = test system: NCI/ADR-RES ovarian
SNB-19 CNS = test system: SNB-19 CNS
786-0 renal = test system: 786-0 renal
HCC-2998 colon = test system: HCC-2998 colon
CAKI-1 renal = test system: CAKI-1 renal
MDA-MB-231 breast = test system: MDA-MB-231 breast
OVCAR-5 ovarian = test system: OVCAR-5 ovarian
HL-60(TB) leukemia = test system: HL-60(TB) leukemia
PC-3 prostate = test system: PC-3 prostate
SK-MEL-2 melanoma = test system: SK-MEL-2 melanoma
KM12 colon = test system: KM12 colon
SNB-75 CNS = test system: SNB-75 CNS
A498 renal = test system: A498 renal
ACHN renal = test system: ACHN renal

Compound	TGI (A549 NSCLC)	TGI (T-47D breast)	TGI (HT29 colon)	TGI (IGROV1 ovarian)	TGI (SW-620 colon)	TGI (NCI/ADR-RES ovarian)	TGI (SNB-19 CNS)	TGI (786-0 renal)	TGI (HCC-2998 colon)	TGI (CAKI-1 renal)	TGI (MDA-MB-231 breast)	TGI (OVCAR-5 ovarian)	TGI (HL-60(TB) leukemia)	TGI (PC-3 prostate)	TGI (SK-MEL-2 melanoma)	TGI (KM12 colon)	TGI (SNB-75 CNS)	TGI (A498 renal)	TGI (ACHN renal)
CC1OC(OC2C(O[C@H]3CC[C@@H]4C(=CC[C@@H]5[C@@]4(C)C(=O)C[C@]4(C)[C@@H]([C@H](C)CC[C@@H](O)C(C)(C)O)CC[C@@]54C)C3(C)C)OC(CO)C(O)C2O)C(O)C(O)C1O (stereo not given in full)	> 100 µM	> 100 µM	> 100 µM	> 100 µM	> 100 µM	> 100 µM	> 100 µM	> 100 µM	> 100 µM	> 100 µM	> 100 µM	> 100 µM	> 100 µM	> 100 µM	> 100 µM	> 100 µM	> 100 µM	> 100 µM	> 100 µM
CO[C@]1(c2ccc([N+](=O)[O-])cc2)Oc2ccccc2C(=O)[C@@]1(Nc1ccc(C=O)cc1)OC	> 10 µM	> 10 µM	> 10 µM	> 10 µM	> 10 µM	> 10 µM	> 10 µM	> 10 µM	> 10 µM	> 10 µM	> 10 µM	> 10 µM	> 10 µM	> 10 µM	> 10 µM	> 10 µM	> 10 µM	> 10 µM	> 10 µM
O=C1N(C2CCCCC2)C(=O)N1C1CCCCC1	> 54.5 µM	17.4 µM	25.3 µM	> 100 µM	26.4 µM	14.9 µM	29.9 µM	> 67.6 µM	> 47.3 µM	25.2 µM	15.6 µM	30.2 µM	0.365 µM	> 45.7 µM	85.5 µM	15.7 µM	> 100 µM	2.37 µM	12 µM
CC1OC(OC2C(OC(=O)[C@]34CCC(C)(C)C[C@H]3C3=CC[C@@H]5[C@@]6(C)CC[C@H](OC7OC(C(=O)O)C(O)C(O)C7O)C(C)(C)[C@@H]6CC[C@@]5(C)[C@]3(C)C[C@H]4O)OCC(O)C2O)C(O)C(O)C1OC1OCC(OC2OCC(O)C(O)C2O)C(O)C1O (stereo not given in full)	15.5 µM	26.3 µM	11 µM	26.5 µM	23.1 µM	25.1 µM	18.4 µM	23.3 µM	3.03 µM	21.6 µM	11.9 µM	20.1 µM	18.1 µM	19.3 µM	11.7 µM	14 µM	26.1 µM	3.06 µM	15.8 µM
O=C(OCc1ccccc1)N(CCCCN(CCCNC(=O)C(F)(F)F)C(=O)OCc1ccccc1)CCCNC(=O)C(F)(F)F	> 100 µM	> 100 µM	> 100 µM	> 100 µM	> 100 µM	> 100 µM	> 100 µM	> 100 µM	> 100 µM	3.55 µM	> 100 µM	> 100 µM	> 100 µM	> 100 µM	> 100 µM	> 100 µM	> 100 µM	> 100 µM	> 100 µM
O=C(O)CCC(NC(=O)c1ccc(OCc2nc3cc(C(F)(F)F)ccc3nc2-c2ccccc2)cc1)C(=O)O (stereo not given)	> 100 µM	> 100 µM	> 100 µM	> 100 µM	> 100 µM	> 100 µM	> 100 µM	> 100 µM	> 100 µM	> 100 µM	> 100 µM	> 100 µM	> 100 µM	> 100 µM	> 100 µM	> 100 µM	> 100 µM	> 100 µM	> 100 µM
CC(=O)Oc1c(C)c2c(c3ncccc13)OC(C)C2 (stereo not given)	26.2 µM	34.8 µM	36.8 µM	20.1 µM	27.2 µM	35.9 µM	> 100 µM	26.7 µM	28.7 µM	27.8 µM	26.2 µM	31 µM	38.8 µM	92.1 µM	40.1 µM	28.7 µM	28 µM	58.3 µM	24.5 µM
COc1c2c(cc3c1C(=O)c1c(O)cccc1C3=O)CC(O)CC2 (stereo not given)	> 100 µM	93.6 µM	> 100 µM	> 100 µM	> 100 µM	> 100 µM	57.1 µM	> 100 µM	> 100 µM	> 100 µM	51.9 µM	> 100 µM	> 100 µM	> 100 µM	> 100 µM	> 100 µM	> 100 µM	> 100 µM	> 100 µM
NC(=O)C(=CNC(N)=S)C(N)=O	> 100 µM	> 100 µM	> 100 µM	> 100 µM	> 100 µM	> 100 µM	> 100 µM	> 100 µM	> 100 µM	> 100 µM	> 100 µM	> 100 µM	> 100 µM	> 100 µM	> 100 µM	> 100 µM	> 100 µM	> 100 µM	> 100 µM
C=Cc1nc2c(Cl)ncnc2n1Cc1ccccc1	29.1 µM	6.75 µM	7.28 µM	10.9 µM	23.2 µM	23.1 µM	31.5 µM	4.49 µM	6.76 µM	3.99 µM	19.1 µM	30.5 µM	9.17 µM	14.5 µM	26.3 µM	11.5 µM	28.4 µM	22.4 µM	3.59 µM
